# Columns and labels:
# [1] = target: ErbB2 with Exon 20 YVMA insertion (HER2-YVMA) (Homo sapiens (Human), UniProt P04626, INS775YVMA); assay: Cellular Phosphorylation Assay, Assay 4 (constitutive ErbB2 phosphorylation, NIH 3T3 cells); assay type: cell-based; details: ErbB2 YVMA phosphorylation
# EGFR = EGFR (Homo sapiens (Human), UniProt P00533); assay: ErbB Enzyme Assay (HTRF KinEASE-TK), Assay 3; assay type: biochemical; details: EGFR enzyme
# EGFR wild type (EGFR WT) = EGFR wild type (EGFR WT) (Homo sapiens (Human), UniProt P00533); assay: Cellular Phosphorylation Assay, Assay 5 (EGF-stimulated EGFR phosphorylation, NIH 3T3 cells); assay type: cell-based; details: EGF-stimulated EGFR WT phosphorylation
# EGFR wild type (EGFR WT), sequence (P00533 25-1210): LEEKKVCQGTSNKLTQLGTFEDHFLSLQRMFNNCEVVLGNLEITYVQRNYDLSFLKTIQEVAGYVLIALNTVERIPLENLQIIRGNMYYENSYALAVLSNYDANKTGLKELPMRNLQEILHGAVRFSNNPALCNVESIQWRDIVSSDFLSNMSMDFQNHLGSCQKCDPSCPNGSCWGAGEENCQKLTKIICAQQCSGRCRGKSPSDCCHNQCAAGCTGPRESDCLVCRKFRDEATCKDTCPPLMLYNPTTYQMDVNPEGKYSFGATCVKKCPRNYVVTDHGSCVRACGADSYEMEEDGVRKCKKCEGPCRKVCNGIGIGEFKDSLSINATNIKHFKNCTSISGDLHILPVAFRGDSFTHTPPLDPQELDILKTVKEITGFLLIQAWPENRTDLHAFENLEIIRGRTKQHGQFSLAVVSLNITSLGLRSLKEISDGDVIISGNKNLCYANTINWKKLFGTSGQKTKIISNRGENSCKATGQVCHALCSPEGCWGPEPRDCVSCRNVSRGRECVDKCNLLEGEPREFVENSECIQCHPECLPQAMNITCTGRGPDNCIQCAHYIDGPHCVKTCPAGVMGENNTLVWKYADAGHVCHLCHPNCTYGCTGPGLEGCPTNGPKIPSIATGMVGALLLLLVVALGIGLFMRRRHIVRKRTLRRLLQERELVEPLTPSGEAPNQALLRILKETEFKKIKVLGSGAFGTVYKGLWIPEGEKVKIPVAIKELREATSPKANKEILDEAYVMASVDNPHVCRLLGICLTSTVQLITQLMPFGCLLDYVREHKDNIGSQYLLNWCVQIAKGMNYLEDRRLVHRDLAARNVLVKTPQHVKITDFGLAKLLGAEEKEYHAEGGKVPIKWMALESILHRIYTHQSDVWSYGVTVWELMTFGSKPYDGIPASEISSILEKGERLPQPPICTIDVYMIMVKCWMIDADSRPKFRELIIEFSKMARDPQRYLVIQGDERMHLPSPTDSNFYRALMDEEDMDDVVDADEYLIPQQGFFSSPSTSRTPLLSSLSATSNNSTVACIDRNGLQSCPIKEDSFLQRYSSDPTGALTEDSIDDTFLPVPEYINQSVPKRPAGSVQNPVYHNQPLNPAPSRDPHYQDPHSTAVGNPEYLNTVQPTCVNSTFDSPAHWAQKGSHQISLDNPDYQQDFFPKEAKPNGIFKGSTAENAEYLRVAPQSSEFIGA
# ErbB2 WT = ErbB2 WT (Homo sapiens (Human), UniProt P04626); assay: ErbB Enzyme Assay (HTRF KinEASE-TK), Assay 2; assay type: biochemical; details: ErbB2 WT enzyme
# ErbB2 WT, sequence (P04626 23-1255): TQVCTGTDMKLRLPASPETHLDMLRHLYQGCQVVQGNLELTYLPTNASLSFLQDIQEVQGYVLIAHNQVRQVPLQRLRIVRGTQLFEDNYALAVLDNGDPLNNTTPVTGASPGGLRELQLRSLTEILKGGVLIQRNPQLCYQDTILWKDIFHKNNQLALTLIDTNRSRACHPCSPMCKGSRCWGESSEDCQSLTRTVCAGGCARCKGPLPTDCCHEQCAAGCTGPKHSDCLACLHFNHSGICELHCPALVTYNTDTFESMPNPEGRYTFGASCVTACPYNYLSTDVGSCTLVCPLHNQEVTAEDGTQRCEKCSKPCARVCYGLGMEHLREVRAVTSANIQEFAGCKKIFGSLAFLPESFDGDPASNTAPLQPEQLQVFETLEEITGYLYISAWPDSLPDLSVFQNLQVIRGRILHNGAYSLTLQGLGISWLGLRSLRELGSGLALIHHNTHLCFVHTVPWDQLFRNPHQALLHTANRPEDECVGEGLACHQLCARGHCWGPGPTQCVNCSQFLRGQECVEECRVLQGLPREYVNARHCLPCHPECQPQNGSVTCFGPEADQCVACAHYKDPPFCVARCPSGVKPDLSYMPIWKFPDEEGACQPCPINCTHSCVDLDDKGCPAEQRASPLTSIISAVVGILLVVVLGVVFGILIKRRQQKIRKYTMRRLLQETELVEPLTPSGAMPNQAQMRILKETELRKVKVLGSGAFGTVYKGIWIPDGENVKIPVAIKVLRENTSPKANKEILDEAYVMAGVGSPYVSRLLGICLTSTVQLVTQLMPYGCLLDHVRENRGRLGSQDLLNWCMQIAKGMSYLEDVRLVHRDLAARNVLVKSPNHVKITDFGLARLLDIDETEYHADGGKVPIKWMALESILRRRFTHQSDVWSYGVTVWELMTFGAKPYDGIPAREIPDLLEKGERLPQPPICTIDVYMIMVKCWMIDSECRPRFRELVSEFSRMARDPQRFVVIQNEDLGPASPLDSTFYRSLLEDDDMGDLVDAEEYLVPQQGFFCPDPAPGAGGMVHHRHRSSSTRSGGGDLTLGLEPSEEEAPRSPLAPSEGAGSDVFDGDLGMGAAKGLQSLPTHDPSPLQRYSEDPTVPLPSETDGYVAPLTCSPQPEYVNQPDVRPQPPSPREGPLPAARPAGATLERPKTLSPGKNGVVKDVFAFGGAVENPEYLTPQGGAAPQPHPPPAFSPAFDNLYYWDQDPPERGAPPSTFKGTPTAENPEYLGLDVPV
# ErbB2 with Exon 20 YVMA insertion (HER2-YVMA), sequence (P04626 other isoform, or with tags, fused parts or gaps ins YVMA behind 775): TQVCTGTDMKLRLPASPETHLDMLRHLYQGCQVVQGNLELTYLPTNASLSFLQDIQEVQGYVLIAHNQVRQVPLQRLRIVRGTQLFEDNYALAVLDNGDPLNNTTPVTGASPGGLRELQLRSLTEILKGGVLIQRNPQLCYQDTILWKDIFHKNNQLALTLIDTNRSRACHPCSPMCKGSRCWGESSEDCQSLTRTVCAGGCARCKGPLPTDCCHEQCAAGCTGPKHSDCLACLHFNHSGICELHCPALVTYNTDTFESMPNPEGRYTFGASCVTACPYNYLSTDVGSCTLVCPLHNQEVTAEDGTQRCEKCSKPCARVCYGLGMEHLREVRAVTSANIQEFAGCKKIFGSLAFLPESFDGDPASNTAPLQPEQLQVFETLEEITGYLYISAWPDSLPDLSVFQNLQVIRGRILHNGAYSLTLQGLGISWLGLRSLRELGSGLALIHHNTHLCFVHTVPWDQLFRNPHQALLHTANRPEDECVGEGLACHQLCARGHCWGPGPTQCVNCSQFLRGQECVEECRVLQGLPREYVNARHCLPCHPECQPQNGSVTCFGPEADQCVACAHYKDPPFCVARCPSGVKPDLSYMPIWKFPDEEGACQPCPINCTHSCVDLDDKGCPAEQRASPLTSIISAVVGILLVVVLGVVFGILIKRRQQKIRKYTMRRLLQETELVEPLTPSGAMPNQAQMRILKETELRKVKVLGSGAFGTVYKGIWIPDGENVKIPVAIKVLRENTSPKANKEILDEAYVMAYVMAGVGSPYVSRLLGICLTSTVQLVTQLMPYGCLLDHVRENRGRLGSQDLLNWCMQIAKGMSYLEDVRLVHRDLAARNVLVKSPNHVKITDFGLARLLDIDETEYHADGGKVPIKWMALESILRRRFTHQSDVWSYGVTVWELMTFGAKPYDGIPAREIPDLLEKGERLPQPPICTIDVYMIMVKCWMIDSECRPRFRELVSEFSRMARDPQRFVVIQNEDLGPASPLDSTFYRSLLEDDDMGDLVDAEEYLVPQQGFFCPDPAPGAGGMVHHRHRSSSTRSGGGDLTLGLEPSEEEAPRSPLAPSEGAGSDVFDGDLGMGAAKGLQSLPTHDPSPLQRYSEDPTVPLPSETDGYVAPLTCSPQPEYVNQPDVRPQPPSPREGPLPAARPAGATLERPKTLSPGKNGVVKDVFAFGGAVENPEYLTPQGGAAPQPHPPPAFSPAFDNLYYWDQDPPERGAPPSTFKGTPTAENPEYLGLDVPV
# EGFR, sequence (P00533 25-1210): as the sequence (P00533 25-1210) above
Compound,IC50 [1] [nM],IC50 (EGFR) [nM],IC50 (EGFR wild type (EGFR WT)) [nM],IC50 (ErbB2 WT) [nM]
"C=CC(=O)N1CCCN(c2nc3c(Nc4ccc(Oc5ccn6ncnc6c5)c(Cl)c4F)ncnc3cc2OC)CC1 [Example 153, 1-(4-(4-((4-([1,2,4]triazolo[1,5-a]pyridin-7-yloxy)-3-chloro-2-fluorophenyl)amino)-7-methoxypyrido[3,2-d]pyrimidin-6-yl)-1,4-diazepan-1-yl)prop-2-en-1-one]",38.3,265,1790,4
"C=CC(=O)N1CC[C@@H]2CN(c3nc4c(Nc5ccc(Oc6ccn7ncnc7c6)c(C)c5F)ncnc4cc3OC)C[C@@H]21 [Example 154, 1-((3aR,6aR)-5-(4-((4-([1,2,4]triazolo[1,5-a]pyridin-7-yloxy)-2-fluoro-3-methylphenyl)amino)-7-methoxypyrido[3,2-d]pyrimidin-6-yl)hexahydropyrrolo[3,4-d]pyrrol-1(2H)-yl)prop-2-en-1-one]",67.8,447,3070,18
"C=CC(=O)N1CCC(c2nc3c(Nc4ccc(Oc5ccn6ncnc6c5)c(C)c4F)ncnc3cc2OC)CC1 [Example 155, 1-(4-(4-((4-([1,2,4]triazolo[1,5-a]pyridin-7-yloxy)-2-fluoro-3-methylphenyl)amino)-7-methoxypyrido[3,2-d]pyrimidin-6-yl)piperidin-1-yl)prop-2-en-1-one]",3950,≥ 10000,≥ 5000,9720
"C=CC(=O)N1CCN(c2nc3c(Nc4ccc(Oc5ccc6cn(C)nc6c5)c(C)c4)ncnc3cc2OC)CC1 [Example 158, 1-(4-(7-methoxy-4-((3-methyl-4-((2-methyl-2H-indazol-6-yl)oxy)phenyl)amino)pyrido[3,2-d]pyrimidin-6-yl)piperazin-1-yl)prop-2-en-1-one]",16.5,321,366,39.1
"C=CC(=O)N1CCN(c2nc3c(Nc4ccc(Oc5ccn6ncnc6c5)c(C)c4F)ncnc3cc2Cl)CC1(C)C [Example 160, 1-(4-(4-((4-([1,2,4]triazolo[1,5-a]pyridin-7-yloxy)-2-fluoro-3-methylphenyl)amino)-7-chloropyrido[3,2-d]pyrimidin-6-yl)-2,2-dimethylpiperazin-1-yl)prop-2-en-1-one]",165,≥ 10000,≥ 5000,515
"C=CC(=O)N1[C@H](C)C[C@@H](c2ccc3ncnc(Nc4ccc(Oc5ccc6c(c5)ncn6C)c(C)c4F)c3n2)C[C@@H]1C [Example 166, 1-((2R,4SR,6S)-4-(4-((2-fluoro-3-methyl-4-((1-methyl-1H-benzo[d]imidazol-5-yl)oxy)phenyl)amino)pyrido[3,2-d]pyrimidin-6-yl)-2,6-dimethylpiperidin-1-yl)prop-2-en-1-one]",64.6,≥ 10000,≥ 5000,64.2
"CC#CC(=O)N1CCN(c2ccc3ncnc(Nc4ccc(Oc5ccn6ncnc6c5)c(Cl)c4F)c3n2)C[C@H]1C [Example 178, (R)-1-(4-(4-((4-([1,2,4]triazolo[1,5-a]pyridin-7-yloxy)-3-chloro-2-fluorophenyl)amino)pyrido[3,2-d]pyrimidin-6-yl)-2-methylpiperazin-1-yl)but-2-yn-1-one]",27.7,443,437,8
"CC#CC(=O)N1CCN(c2ccc3ncnc(Nc4ccc(Oc5ccn6ncnc6c5)c(C)c4F)c3n2)CC1(C)C [Example 179, 1-(4-(4-((4-([1,2,4]triazolo[1,5-a]pyridin-7-yloxy)-2-fluoro-3-methylphenyl)amino)pyrido[3,2-d]pyrimidin-6-yl)-2,2-dimethylpiperazin-1-yl)but-2-yn-1-one]",103,7630,≥ 5000,74
"CC#CC(=O)N1CCN(c2ccc3ncnc(Nc4ccc(Oc5ccn6ncnc6c5)c(Cl)c4F)c3n2)CC12CC2 [Example 181, 1-(7-(4-((4-([1,2,4]triazolo[1,5-a]pyridin-7-yloxy)-3-chloro-2-fluorophenyl)amino)pyrido[3,2-d]pyrimidin-6-yl)-4,7-diazaspiro[2.5]octan-4-yl)but-2-yn-1-one]",35.3,553,879,11.7
"CC#CC(=O)N1CCN(c2ccc3ncnc(Nc4ccc(Oc5ccn6ncnc6c5)c(C)c4F)c3n2)CC12CC2 [Example 182, 1-(7-(4-((4-([1,2,4]triazolo[1,5-a]pyridin-7-yloxy)-2-fluoro-3-methylphenyl)amino)pyrido[3,2-d]pyrimidin-6-yl)-4,7-diazaspiro[2.5]octan-4-yl)but-2-yn-1-one]",76.1,6140,2730,27.3
"CC#CC(=O)N1CCC12CN(c1ccc3ncnc(Nc4cc(C)c(Oc5ccn6ncnc6c5)cc4F)c3n1)C2 [Example 188, 1-(6-(4-((4-([1,2,4]triazolo[1,5-a]pyridin-7-yloxy)-2-fluoro-5-methylphenyl)amino)pyrido[3,2-d]pyrimidin-6-yl)-1,6-diazaspiro[3.3]heptan-1-yl)but-2-yn-1-one]",2020,≥ 10000,≥ 5000,1450
"C=CC(=O)N1[C@@H]2CC[C@H]1CC(c1ccc3ncnc(Nc4cc(C)c(Oc5ccn6ncnc6c5)cc4F)c3n1)C2 (stereo partly drawn) [Example 194, 1-((1R,5S)-3-(4-((4-([1,2,4]triazolo[1,5-a]pyridin-7-yloxy)-2-fluoro-5-methylphenyl)amino)pyrido[3,2-d]pyrimidin-6-yl)-8-azabicyclo[3.2.1]octan-8-yl)prop-2-en-1-one]",33.9,5800,2780,171
"C=CC(=O)N1CC(c2ccc3ncnc(Nc4ccc(Oc5ccc6c(c5)ncn6C)c(C)c4F)c3n2)CCC12CC2 (stereo not drawn) [Example 197, 1-(6-(4-((2-fluoro-3-methyl-4-((1-methyl-1H-benzo[d]imidazol-5-yl)oxy)phenyl)amino)pyrido[3,2-d]pyrimidin-6-yl)-4-azaspiro[2.5]octan-4-yl)prop-2-en-1-one]",35.2,650,853,21.1

# Continued, values first:
IC50 [1] [nM],IC50 (EGFR) [nM],IC50 (EGFR wild type (EGFR WT)) [nM],IC50 (ErbB2 WT) [nM],Compound
19.6,110,215,20.3,"C=CC(=O)N1CCC(Oc2nc3c(Nc4ccc(Oc5ccc6cn(C)nc6c5)c(Cl)c4F)ncnc3cc2OC)CC1 [Example 156, 1-(4-((4-((3-chloro-2-fluoro-4-((2-methyl-2H-indazol-6-yl)oxy)phenyl)amino)-7-methoxypyrido[3,2-d]pyrimidin-6-yl)oxy)piperidin-1-yl)prop-2-en-1-one]"
25.7,≥ 10000,≥ 5000,342,"C=CC(=O)N1CCN(c2ccc3ncnc(Nc4ccc(Oc5ccc6c(c5)ncn6C)c(C)c4F)c3n2)C[C@@H]1C1CC1 [Example 162, (S)-1-(2-cyclopropyl-4-(4-((2-fluoro-3-methyl-4-((1-methyl-1H-benzo[d]imidazol-5-yl)oxy)phenyl)amino)pyrido[3,2-d]pyrimidin-6-yl)piperazin-1-yl)prop-2-en-1-one]"
44.9,≥ 10000,≥ 5000,261,"C=CC(=O)N1C[C@@H](c2ccc3ncnc(Nc4cc(C)c(Oc5ccc6c(c5)ncn6C)cc4F)c3n2)CC[C@H]1C [Example 170, 1-((2R,5S)-5-(4-((2-fluoro-5-methyl-4-((1-methyl-1H-benzo[d]imidazol-5-yl)oxy)phenyl)amino)pyrido[3,2-d]pyrimidin-6-yl)-2-methylpiperidin-1-yl)prop-2-en-1-one]"
73.4,≥ 10000,≥ 5000,314,"CC#CC(=O)N1CCN(c2ccc3ncnc(Nc4ccc(Oc5ccn6ncnc6c5)c(C)c4F)c3n2)C[C@@H]1COC [Example 180, (R)-1-(4-(4-((4-([1,2,4]triazolo[1,5-a]pyridin-7-yloxy)-2-fluoro-3-methylphenyl)amino)pyrido[3,2-d]pyrimidin-6-yl)-2-(methoxymethyl)piperazin-1-yl)but-2-yn-1-one]"
4.4,73.3,79.3,6.2,"CC#CC(=O)N1CCN(c2ccc3ncnc(Nc4ccc(Oc5ccn6ncnc6c5)c(Cl)c4F)c3n2)C[C@@H]1C(F)(F)F [Example 183, (R)-1-(4-(4-((4-([1,2,4]triazolo[1,5-a]pyridin-7-yloxy)-3-chloro-2-fluorophenyl)amino)pyrido[3,2-d]pyrimidin-6-yl)-2-(trifluoromethyl)piperazin-1-yl)but-2-yn-1-one]"
315,≥ 10000,≥ 5000,128,"C=C(F)C(=O)N1CCN(c2ccc3ncnc(Nc4ccc(Oc5ccn6ncnc6c5)c(C)c4F)c3n2)CC1 [Example 185, 1-(4-(4-((4-([1,2,4]triazolo[1,5-a]pyridin-7-yloxy)-2-fluoro-3-methylphenyl)amino)pyrido[3,2-d]pyrimidin-6-yl)piperazin-1-yl)-2-fluoroprop-2-en-1-one]"
273,≥ 10000,≥ 5000,100,"C=C(F)C(=O)N1CCN(c2ccc3ncnc(Nc4ccc(Oc5ccn6ncnc6c5)c(C)c4F)c3n2)CC1(C)C [Example 187, 1-(4-(4-((4-([1,2,4]triazolo[1,5-a]pyridin-7-yloxy)-2-fluoro-3-methylphenyl)amino)pyrido[3,2-d]pyrimidin-6-yl)-2,2-dimethylpiperazin-1-yl)-2-fluoroprop-2-en-1-one]"
41.2,1280,1790,11.1,"C=CC(=O)N1CCCC(c2ccc3ncnc(Nc4ccc(Oc5ccn6ncnc6c5)c(C)c4F)c3n2)CC1 (stereo not drawn) [Example 189, 1-(4-(4-((4-([1,2,4]triazolo[1,5-a]pyridin-7-yloxy)-2-fluoro-3-methylphenyl)amino)pyrido[3,2-d]pyrimidin-6-yl)azepan-1-yl)prop-2-en-1-one]"

# — patent publication US12447153B2, “HER2 mutation inhibitors” (Array BioPharma Inc., priority 2021, dated 2025)
